According to EPA's ToxValDB 9.5:

Tested on: Rattus norvegicus
Conditions: oral
[1] = short-term, duration: 28 days, gavage, M/F, Sprague-Dawley, Deaths + Clinical Observation: Tremor Locomotor activity decrease1000 Ptosis Prone position Lateral position Soiled peritoneal region …

Molecule `CC(=O)C=Cc1ccccc1` [Methyl styryl ketone] has an NOEL (short-term, duration: 28 days, gavage, M/F, Sprague-Dawley, Functional Observational Battery: Salivation Rearing decrease + Urinalysis: KET increase + Blood Chemistry: T-Cho increase + Absolute Organ …) of 60 mg/kg-day.

For `Cc1cc(O)ccc1Cl` [4-Chloro-3-methylphenol], the LOAEL [1] was 250 mg/kg-day, the LOEL [1] was 250 mg/kg-day and the NOAEL [1] was 60 mg/kg-day. For the same molecule, the NOEL [1] was 60 mg/kg-day.

In the case of `BrC1CCC(Br)C(Br)CCC1Br` (stereo unspecified) [1,2,5,6-Tetrabromocyclooctane], the NOEL (subchronic, gavage, M, Sprague-Dawley, Food Consumption: decrease, R (recovery day3) + Blood Chemistry: TP increase, Alb increase + Absolute Organ Weight: Liver increase + …) is reported as < 40 mg/kg-day.

For `Cc1ccc(Nc2ccc(C)cc2)cc1` [4,4'-Dimethyldiphenylamine], the NOEL (short-term, duration: 28 days, gavage, M/F, Clinical Observation: Salivation + Blood Chemistry: GOT increase, GPT increase, gamma-GTP increase, T-CHO increase, TG increase, IP …) was 30 mg/kg-day.

With `CCOP(OCC)OCC` [Triethyl phosphite] the NOAEL (subchronic, duration: 32 days, gavage, M/F, Deaths + Clinical Observation: Impaired general condition Emaciation Unkempt fur + Body Weight Changes: Weight gain decrease + Food …) was 150 mg/kg-day.

With `CCCCCCCCCCCCCCCCCCCCCC[N+](C)(C)C.[Cl-]` [Docosyltrimethylammonium chloride] the NOEL (subchronic, gavage, M, Sprague-Dawley, Clinical Observation: Salivation Perinasal and perioral smudge Soft stool and diarrhea + Body Weight Changes: decrease, R + Food …) was < 5 mg/kg-day.

With `O=C1c2ccccc2C(=O)N1SC(F)(Cl)Cl` [Fluorofolpet] the NOEL (short-term, duration: 28 days, gavage, M/F, Wistar, Deaths + Clinical Observation: Nasal noise Diarrhea + Body Weight Changes: Weight gain decrease + Food Consumption: decrease + Water …) was < 20 mg/kg-day.

`Fc1ccc(Br)cc1F` [4-Bromo-1,2-difluorobenzene] was tested, and the NOEL (short-term, duration: 28 days, gavage, M/F, Deaths + Clinical Observation: Locomotor activity decrease, Salivation Paleness of Auricle + Body Weight Changes: Gain decrease + …) was 20 mg/kg-day.

`C=CCOC(=O)c1ccccc1-c1ccccc1C(=O)OCC=C` was tested, and the NOEL (short-term, duration: 28 days, gavage, M/F, Clinical Observation: Salivation + Hematology: APTT increase, PT increase + Blood Chemistry: GOT increase, GPT increase, gamma-GTP increase…) was 6 mg/kg-day.

`C=CC(F)(F)C(F)(F)C(F)(F)C(F)(F)C(F)(F)C(F)(F)C(F)(F)C(F)(F)F` [1H,1H,2H-Perfluoro-1-decene] gave an NOEL (short-term, duration: 28 days, gavage, M/F, Hematology: Trend of anemia + Blood Chemistry: GOT increase, GPT increase, T-CHO decrease + Absolute Organ Weight: Liver increase + …) of 8 mg/kg-day.

For `Cc1cc(O)c(C)c(C)c1O` [2,3,5-Trimethylhydroquinone], the NOEL (subchronic, gavage, M, Sprague-Dawley, Deaths + Clinical Observation: Salivation Locomotor activity decrease, Irregular respiration + Body Weight Changes: decrease + Hematology: …) was < 10 mg/kg-day.

For `O=[N+]([O-])c1ccc(Cl)c(Cl)c1` [3,4-Dichloronitrobenzene], the NOEL (subchronic, gavage, M, Sprague-Dawley, Hematology: RBC decrease, Hct decrease, MCV increase, MCH increase, Hgb decrease, MCHC decrease, Ret increase + Blood Chemistry: T-Bil: …) was < 4 mg/kg-day.

`O=C(c1ccc(Cl)cc1)c1ccccc1Cl` [2,4'-Dichlorobenzophenone] gave an NOEL (subchronic, gavage, M, Sprague-Dawley, Clinical Observation: Salivation (transient) + Functional Observational Battery: Salivation + Body Weight Changes: Gain decrease(trend) + …) of 40 mg/kg-day.

With `Clc1ccc(Cl)nn1` [Pyridazine, 3,6-dichloro-] the NOEL (short-term, duration: 28 days, gavage, F, Sprague-Dawley, Body Weight Changes: decrease, Weight gain decrease + Food Consumption: decrease + Urinalysis: BIL increase + Blood Chemistry: TP increase, …) was 10 mg/kg-day.

`CC(C)(C)c1cc2nc(-c3ccc(N)cc3)nn2[nH]1` gave an NOEL (short-term, duration: 28 days, gavage, M/F, Deaths + Clinical Observation: Locomotor activity decrease, Piloerection + Body Weight Changes: Gain decrease + Hematology: RBC decrease, …) of 2 mg/kg-day.

With `CCCCCCC[CH2][Sn]([Cl])([Cl])[CH2]CCCCCCC` [Dichloro(dioctyl)stannane] the NOAEL (subchronic, duration: 90 days, diet, M/F, Wistar, Body Weight Changes: Weight gain decrease + Food Consumption: decrease + Urinalysis: Crystals increase + Hematology: RBC decrease, HGB …) was > 0.96 mg/kg-day.

`OCC#CCO` [2-Butyne-1,4-diol] gave an NOEL (short-term, duration: 28 days, gavage, M/F, Wistar, Deaths + Body Weight Changes: decrease + Food Consumption: decrease + Hematology: RET increase, WBC increase, Neut increase, Lymph increase…) of 1 mg/kg-day.

With `O=N[O-].[Na+]` [Sodium nitrite] the NOEL (chronic, duration: 14 weeks, water, F, Fischer 344, Deaths + Clinical Observation: Brown discoloration in eyes Cyanosis Hypoactive Alopecia + Body Weight Changes: decrease + Water Consumption…) was < 40 mg/kg-day and the NOEL (chronic, duration: 14 weeks, water, M/F, Fischer 344, Deaths + Clinical Observation: Brown discoloration in eyes Cyanosis Hypoactive Alopecia + Body Weight Changes: decrease + Water Consumption…) was < 83.6 mg/kg-day.

Work on `N#CC(Cl)(Cl)Cl` [Trichloroacetonitrile] yielded an NOEL (short-term, duration: 28 days, gavage, M/F, Clinical Observation: Salivation Locomotor activity decrease, Bradypnea Ptosis Flushing of auricle Staggering gait + Body Weight Changes: …) of 40 mg/kg-day.

With `COc1ccc([N+](=O)[O-])cc1N=Nc1c(O)c(C(=O)Nc2cccc([N+](=O)[O-])c2)cc2ccccc12` [C.I. Pigment Red 23] the NOEL (subchronic, duration: 13 weeks, diet, M/F, Fischer 344, Hematology: Hct decrease, Hgb decrease, RBC decrease + Blood Chemistry: LDH increase + Absolute Organ Weight: Liver + Relative Organ Weight…) was < 288 mg/kg-day.

Work on `CC(C)OC(=O)C(C)(C)Oc1ccc(C(=O)c2ccc(Cl)cc2)cc1` [Fenofibrate] yielded an NOAEL (chronic, duration: 91 days, gavage, M/F, CD, Body Weight Changes: decrease + Food Consumption: decrease + Urinalysis: WBCEpithelial cell + Hematology: RBC decrease, HCT decrease, HGB …) of 5 mg/kg-day.

`O[Si](O)(C1CCCC1)C1CCCC1` [Dicyclopentylsilanediol] gave an NOEL (subchronic, duration: 90 days, gavage, M, Sprague-Dawley, Clinical Observation: Ataxic gait SalivationDecreased locomotor activity + Blood Chemistry: TG decrease + Relative Organ Weight: Liver …) of 40 mg/kg-day.
